Patent publication US20200276181A1, “THIENOISOQUINOLINES AND THEIR DERIVATIVES FOR TARGETING TUBULIN, CH-TOG, AURORA A KINASE, TPX2, CDK5RAP2 AND/OR ASPM” (VALORBEC, SEC, priority 2017, published 2020)

Columns and labels:
[1] = tested on: A549 cells; experiment: Viability IC50 of C75 in combination with subthreshold colchicine; format: cell-based, human; conditions: + 9 nM colchicine
[2] = tested on: HFF1 cells; experiment: Spindle morphology, fixed cells stained for tubulin and DAPI; format: cell-based; conditions: 300 nM
Procedure: (§1) FIG. 1A) is a line graph showing changes in the percentage of viable HFF-1, HeLa, A549 and HCT 116 cells after treatment with a range of C75 concentrations for 3 population doubling times (N=3). […] There were more rounded mitotic cells after C75 treatment in comparison to the control. FIG. 1C) is a line graph showing the percentage of HeLa and HFF1 cells in mitosis after treatment with various concentrations of C75 for 8 hours. The bars indicate standard deviation. FIG. 1D) is a series of images showing cells that were fixed and co-stained for tubulin (microtubules) and DAPI (DNA). Treatment of HeLa cells with 300 nM C75 caused the mitotic spindles to be disorganized, while they were not affected in HFF1 cells. […] The scale bar for the cells is 10 μm. […] FIG. 1F) is a cartoon schematic showing the key features of a metaphase cell.
(§2) The images in FIG. 1B) show fields of view of HeLa cells treated with (dimethyl sulfoxide) DMSO or 500 nM of C75. […] Higher concentrations of C75 caused spindle phenotypes in HFF1 cells, but they were quite different in comparison to HeLa cells (FIG. 1D).

[3] = tested on: HCT116, HeLa and A549 cells; experiment: Cell cycle phases by flow cytometry; format: cell-based; conditions: 300 nM or 400 nM for 8 hours
Description: (§3) For each condition, 20,000 cells were counted per replicate (N=3). Line graphs (right) were made to better illustrate the relative changes in the cell cycle phases for the different treatments. Bars show standard deviation. The asterisks indicate the first statistically significant change in the G0/G1 and G2/M populations determined by a two-way ANOVA with a post-hoc Tukey's multiple comparisons test using 95% confidence intervals. FIG. 2B) is a line graph showing the percentage of HCT116 (p53−/−) cells, A549 cells, HeLa cells and H1299 cells in mitosis after treatment with various concentrations of C75 for one population doubling time. All of the cell lines show an increase in the proportion of mitotic cells after treatment with 200 nM C75. The bars indicate standard deviation. […]
(§4) C75 was also tested for efficacy in different cancer cell lines. […] To further assess the role of C75 in disrupting spindles, HeLa cells were treated with 300 nM C75 for 4 hours and the spindle phenotypes were analyzed in more detail (FIG. 2E). […] To assess the affect of C75 on centrosomes, HeLa cells were treated with C75 or nocodazole (a drug that causes microtubule depolymerization as a control) for a short period of time (5 minutes), then the drugs were removed and the cells were analyzed for spindle phenotypes (schematic in FIG. 2G). […]

[4] = tested on: HeLa cells in metaphase; experiment: Short treatment and washout, spindle recovery; format: cell-based, human; conditions: 5 minutes treatment, washout, imaged after 40 minutes
Description: as §3, §4

[5] = tested on: HeLa cells in comparison to HFF1 cells; experiment: Percentage of cells in mitosis, 8 hours; format: cell-based; conditions: nanomolar range
Procedure: as §1, §2

[6] = tested on: HCT116 cells; experiment: Spindle phenotypes, fixed cells stained for γ-tubulin and ACA; format: cell-based; conditions: 300 nM for 4 hours
Description: (§5) For each condition, 20,000 cells were counted per replicate (N=3). Line graphs (right) were made to better illustrate the relative changes in the cell cycle phases for the different treatments. Bars show standard deviation. The asterisks indicate the first statistically significant change in the G0/G1 and G2/M populations determined by a two-way ANOVA with a post-hoc Tukey's multiple comparisons test using 95% confidence intervals. FIG. 2B) is a line graph showing the percentage of HCT116 (p53−/−) cells, A549 cells, HeLa cells and H1299 cells in mitosis after treatment with various concentrations of C75 for one population doubling time. All of the cell lines show an increase in the proportion of mitotic cells after treatment with 200 nM C75. The bars indicate standard deviation. […] While the mitotic spindles were not dramatically altered by C75 in HFF1 cells, they were monopolar (as shown) or fragmented in the other cell types. […] The mitotic spindles were more strongly fragmented after C75 treatment in these cells vs. the cells in FIG. 2C). FIG. 2E) are images showing fixed HFF1, HeLa, A549 and HCT 116 cells co-stained for γ-tubulin (spindle poles; white) and ACA (centromeres; light grey) 4 hours after treatment with 300 nM C87 (control) or 300 nM C75. Cartoon schematics show examples of the different spindle phenotypes, including bipolar with aligned chromosomes (top), bipolar with misaligned chromosomes (upper middle), multipolar/fragmented (lower middle), or monopolar (bottom), and the proportion of that phenotype is shown in the top right corner of each image. FIG. 2F) is a bar graph showing the proportion of the different spindle phenotypes for HFF1, HeLa, A549 and HCT 116 cells treated as in FIG. 2E) (n=1355; N=3). Bars show standard deviation. […] While mitotic spindles recovered bipolarity after removing nocodazole, they remained multipolar after removing C75. […] FIG. 2J) is a bar graph showing the proportion of cells with monopolar (black), bipolar (dark grey) or multipolar (light grey) spindles. Bars show standard deviation. FIG. 2K) is a series of time-lapse images of a live HeLa cell expressing GFP:tubulin after treatment with C75 as shown in 2G). […] Drugs were not washed out. […]
as §4

[7] = tested on: HFF-1 cells; experiment: as above; format: cell-based; conditions: 300 nM for 4 hours
Description: as §5, §4

[8] = tested on: A549 cells; experiment: IC50 of derivatives (Table 5); format: cell-based, human; conditions: Homo sapiens; Table 5; cell line only named in b213 (A549)
[9] = tested on: HCT116 cells; experiment: Mitotic arrest after one population doubling time; format: cell-based; conditions: HCT116, most responsive
Description: as §3, §4

With `COc1ccc(S(=O)(=O)N2Cc3ccccc3-c3sc(Br)cc32)cc1` [Compound C75] the “lowering of the IC50 of C75 by subthreshold colchicine” value [1] was roughly 2 fold, the mitotic spindle morphology [2] was “not affected” and the “change in proportion of G2/M cells” value [3] was “increase in the proportion of G2/M cells”. For the same molecule, the “spindles reformed after drug removal” value [4] was “tri- or multipolar spindles formed”, the “mitotic arrest in HeLa vs HFF1” value [5] was “selectively causes mitotic arrest” and the “cells with bipolar spindles with misaligned chromosomes” value [6] was 22%. For the same molecule, the “cells with monopolar spindles” value [6] was 35%, the “cells with multipolar or fragmented spindles” value [6] was 13% and the “cells with bipolar spindles with aligned chromosomes” value [7] was 88%. The IC50 [8] was 431 nM and the “concentration at which mitotic cells increase” value [9] was 100 nM.
